Results on five compounds are retold here after PMC2745115 (Bioorganic & medicinal chemistry letters, 2008).

For one data set, the target named is μ opioid receptor (Homo sapiens, UniProt P35372). Nature of the data set: Inhibition of [3H]DAMGO binding to CHO cell membranes. To be noted: relative to 4d.
The nature of data set [1]: Hydrolysis stability of esters by HPLC. Type of data set: physicochemical. The following applies: pH 7.4, 25 mM phosphate buffer, 37 C, after 24 hours.
For data set [2] the following is noted: humans; cited from earlier work.
The conditions of data set [3]: rhesus monkeys; cited from earlier work.
The target in another data set is κ opioid receptor (Homo sapiens, UniProt P41145). As to the kind of experiment: Inhibition of [3H]U69,593 binding to CHO cell membranes. To be noted: relative to butorphanol.
Chain of κ opioid receptor (P41145 whole entry): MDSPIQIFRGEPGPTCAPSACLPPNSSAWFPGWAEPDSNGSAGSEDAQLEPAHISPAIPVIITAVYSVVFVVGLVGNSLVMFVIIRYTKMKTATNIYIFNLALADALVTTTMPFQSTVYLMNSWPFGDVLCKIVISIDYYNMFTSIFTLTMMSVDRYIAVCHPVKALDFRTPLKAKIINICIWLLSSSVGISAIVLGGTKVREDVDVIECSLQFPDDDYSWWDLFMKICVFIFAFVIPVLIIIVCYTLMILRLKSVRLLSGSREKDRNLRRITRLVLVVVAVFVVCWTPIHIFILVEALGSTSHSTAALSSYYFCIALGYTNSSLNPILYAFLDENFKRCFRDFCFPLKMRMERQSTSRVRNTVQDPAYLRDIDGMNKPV

Chain of μ opioid receptor (P35372 whole entry, species assumed): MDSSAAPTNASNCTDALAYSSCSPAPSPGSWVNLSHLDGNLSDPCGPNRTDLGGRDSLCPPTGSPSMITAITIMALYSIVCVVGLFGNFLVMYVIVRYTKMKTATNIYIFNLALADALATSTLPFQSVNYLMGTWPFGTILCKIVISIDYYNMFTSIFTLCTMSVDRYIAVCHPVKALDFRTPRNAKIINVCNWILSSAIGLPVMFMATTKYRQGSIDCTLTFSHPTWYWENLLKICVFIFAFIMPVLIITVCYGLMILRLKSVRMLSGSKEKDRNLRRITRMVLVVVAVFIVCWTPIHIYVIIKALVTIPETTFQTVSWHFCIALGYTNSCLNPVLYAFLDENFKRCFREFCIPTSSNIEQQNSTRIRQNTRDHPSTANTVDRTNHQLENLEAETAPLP

Take `Cl.O[C@@]12CCCC[C@@]13CCN(CC1CCC1)[C@@H]2Cc1ccc(OCCc2ccccc2)cc13` [5d]: the “less binding affinity at the μ opioid receptor than 4d” value at μ opioid receptor is 164 fold.
For `Cl.O=C(Cc1ccccc1)Oc1ccc2c(c1)[C@@]13CCCC[C@@]1(O)[C@@H](C2)N(CC1CCC1)CC3` [4b], the “hydrolysis of the esters” value in data set [1] is “No hydrolysis”.
Same read-out and setting: next, `Cc1ccc(C(C)C(=O)Oc2ccc3c(c2)[C@@]24CCCC[C@@]2(O)[C@@H](C3)N(CC2CCC2)CC4)cc1.Cl` (stereo partly drawn) [4c]: “No hydrolysis”.
For `Oc1ccc2c(c1)[C@@]13CCCC[C@@]1(O)[C@@H](C2)N(CC1CCC1)CC3` [3b, butorphanol], in data set [2], the “analgesic potency, times that of meperdine” value is 30 – 40 times; the “analgesic potency, times that of morphine” value is given as 4 – 8 times; the “analgesic potency, times that of pentazocine” value is listed as 16 – 24 times. In addition, in data set [3], the cocaine self-administration entry is “decrease cocaine self-administration” and the food-maintained responding entry was “without producing a significant change”.
Turning to `Cl.O=C(COc1ccccc1)Oc1ccc2c(c1)[C@@]13CCCC[C@@]1(O)[C@@H](C2)N(CC1CCC1)CC3` [4d, (-)-N-cyclobutylmethylmorphinan-3-yl-14-ol phenoxyacetate], the “more potent binder at the κ receptor than butorphanol” value on κ opioid receptor was “four-fold”.
